Test results as given in PMC9969401, “Discovery of 2-(3-Benzamidopropanamido)thiazole-5-carboxylate Inhibitors of the Kinesin HSET (KIFC1) and the Development of Cellular Target Engagement Probes” (Journal of Medicinal Chemistry, 2023).

Columns and labels:
[1] = target: T1, recombinant full-length HSET (Homo sapiens, UniProt Q9BW19); test: ADP-Glo HSET assay (3 μM ATP), microtubule-stimulated ATPase; type: biochemical; conditions: for IC50: preformed microtubules, 3 μM ATP, read-out: HSET ADP-Glo IC50
T1 construct: 5 nM full-length human N-terminal His-tag HSET; His-tag (N)
T1 sequence (Q9BW19 1-673): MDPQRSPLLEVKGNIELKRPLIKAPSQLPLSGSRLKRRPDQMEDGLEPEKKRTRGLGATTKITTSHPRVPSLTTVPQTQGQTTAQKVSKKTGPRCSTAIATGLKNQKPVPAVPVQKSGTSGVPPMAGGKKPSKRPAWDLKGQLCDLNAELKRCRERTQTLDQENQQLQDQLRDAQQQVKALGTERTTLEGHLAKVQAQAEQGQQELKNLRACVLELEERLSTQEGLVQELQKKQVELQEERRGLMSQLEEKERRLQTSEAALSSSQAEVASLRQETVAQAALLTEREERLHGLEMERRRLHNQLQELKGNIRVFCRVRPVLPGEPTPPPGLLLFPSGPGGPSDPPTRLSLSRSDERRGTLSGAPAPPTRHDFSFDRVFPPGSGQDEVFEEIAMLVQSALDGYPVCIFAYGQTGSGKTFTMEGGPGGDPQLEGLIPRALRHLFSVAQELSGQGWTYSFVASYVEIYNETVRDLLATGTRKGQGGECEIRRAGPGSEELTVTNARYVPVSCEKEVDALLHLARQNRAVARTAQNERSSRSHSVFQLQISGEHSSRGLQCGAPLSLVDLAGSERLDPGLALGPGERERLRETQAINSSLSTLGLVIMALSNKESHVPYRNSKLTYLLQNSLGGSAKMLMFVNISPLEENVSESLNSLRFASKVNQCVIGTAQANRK
Procedure, shortened: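 His-tagged full-length HSET (5 nM) or GST-Eg5 motor domain (4 nM), with 70 μg/mL paclitaxel-stabilised microtubules in HEPES pH 6.8 buffer, was preincubated with compound for 10 min. ATP was then added (3 or 500 μM for HSET, 4.8 μM for Eg5), followed by 80 min at 25 °C and ADP-Glo luminescence. IC50 was fitted with a four-parameter logistic.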

[2] = target: T1, recombinant full-length HSET; test: ADP-Glo HSET assay (500 μM ATP); type: biochemical; conditions: high ATP concentration of 500 μM; single determination or mean of two
Description: The HSET or Eg5 ATPase activity was measured using the ADP-Glo Kinase Assay kit (Promega, V9102). The assays were run using final concentrations of 5 nM full-length human N-terminal His-tag HSET or 4 nM GST-tagged Eg5 motor domain protein (Cytoskeleton, EG01) and an assay buffer containing 20 mM HEPES pH 6.8, 10 mM MgCl2, 0.25 mM EGTA, 0.4 mM Triton X-100, and 1 mM DTT. Preformed microtubules (Universal Biologicals Cambridge, bovine MT001-XL, or porcine MT002-XL), which were reconstituted in 15 mM PIPES pH 7, 1 mM MgCl2, and 20 μM paclitaxel, were present at a final assay concentration of 70 μg/mL. A reaction volume of 5 μL was used in Proxiplate 384 plus white assay plates (PerkinElmer, 6008280). To measure compound inhibition, 100 nL of compound dissolved in DMSO or DMSO alone was preincubated with the HSET and microtubules for 10 min before 3 μM Ultra-Pure ATP was added to start the ATPase reaction for the 3 μM ATP HSET assay. For the 500 μM ATP HSET assay, the addition of 500 μM Ultra-Pure ATP was used. For the Eg5 ATPase assay, 4.8 μM Ultra-Pure ATP was used. All reactions were incubated at 25 °C for 80 min and then stopped by the addition of 5 μL of the ADP-Glo reagent. 10 μL of Kinase Detection Reagent was then added after a further 45 min of incubation. The luminescence was read after 45 min on a PheraStar FSX plate reader (BMG Labtech). The data processing was performed using Dotmatics Studies software package. Percentage inhibition was determined based on normalization to high controls (0% inhibition, all reagents with 100 nL of DMSO alone) and low controls (100% inhibition […], without HSET). The IC50 values for each compound were determined using a four-parameter logistic curve fit of % inhibition versus concentration.

[3] = test system: non-centrosome amplified DLD1 (4N) cells; test: Multipolar spindle assay (4N cell line); type: cell-based, human; conditions: for % Multipolarity above baseline @ 15 mM (4N cells): supplementary CSV; for % multipolarity above baseline @ 15 μM (4N cells): 4N DLD1 cells (Table 4)
Procedure, shortened: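 4NCA cells came from 2N DLD1 treated 24 h with 2 μΜ DCB then released 24 h; 4N DLD1 used directly. After 3.5 h arrest with 8 μM pro-TAME, compounds were added with 8 μM MG-132; fixed cells stained for aurora A, pHH3 and DAPI, imaged, and percentage multipolar (>2 poles) mitoses scored.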

[4] = Kinetic aqueous solubility (KSol), HPLC-UV; type: physicochemical; conditions: PBS buffer pH 7.4, 100 μM solution with 1% DMSO, HPLC with UV detection
[5] = mean (±SD) n ≥ 3 (37 n = 2, 38 single determination) (Table 3)

For `CCCOC(=O)c1sc(NC(=O)C[C@H](CCCN(C)C)NC(=O)c2cccc(-c3noc(C)n3)c2)nc1C` [Compound 36, Propyl (S)-2-(6-(Dimethylamino)-3-(3-(5-methyl-1,2,4-oxadiazol-3-yl)benzamido)hexanamido)-4-methylthiazole-5-carboxylate], the IC50 [1, 5] was 11 nM, the IC50 ([1]; mean (±SD) n ≥ 3 (Table 4)) was 11 nM and the IC50 [2] was 90 nM. The “% Multipolarity above baseline @ 15 mM (4N cells)” value ([3]; 15 μM) was 1%, the “% multipolarity above baseline @ 15 μM (4N cells)” value [3] was 1% and the KSol data [4] was over 90 µM.

For `CCCOC(=O)c1sc(NC(=O)C[C@H](CCCN(C)C(=O)O[C@@H]2CC/C=C/CCC2)NC(=O)c2cccc(-c3noc(C)n3)c2)nc1C` [Compound 38, Propyl 2-((S)-6-(((((S,E)-Cyclooct-4-en-1-yl)oxy)carbonyl)(methyl)amino)-3-(3-(5-methyl-1,2,4-oxadiazol-3-yl)benzamido)hexanamido)-4-methylthiazole-5-carboxylate], the “fold decrease in HSET activity” value ([1]; compared to its parent compound (35)) was 11 fold, the IC50 [1, 5] was 217 nM and the KSol data [4] was 1.8 µM.

`CCCOC(=O)c1sc(NC(=O)CCNC(=O)c2cccc(-c3noc(C)n3)c2)nc1C` [Compound 32, Propyl 4-Methyl-2-(3-(3-(5-methyl-1,2,4-oxadiazol-3-yl)benzamido)propanamido)thiazole-5-carboxylate] gave an LE ([1]; LE = −1.4Log(IC50 [M])/number of non-hydrogen atoms (Table 2)) of 0.35, an LLE ([1]; LLE = −Log(IC50 [M]) – cLogP (MoKa) (Table 2)) of 4.8 and an IC50 ([1]; mean (±SD) n ≥ 3 (Table 4)) of 12 nM. For the same compound, the IC50 ([1]; mean (±SD) n ≥ 3, >200 from a single determination (Table 2)) was 12 nM, the “fold increase in HSET inhibition” value ([1]; propyl ester versus ethyl ester 13) was “fivefold” and the IC50 [2] was 51 nM. For the same compound, the “% Multipolarity above baseline @ 15 mM (4N cells)” value ([3]; 15 μM) was 2%, the “effect on multipolar mitoses (4N), in words” value ([3]; 15 μM, non-centrosome amplified DLD1 (4N) cell line) was “minimal effect” and the “% multipolarity above baseline @ 15 μM (4N cells)” value [3] was 2%.

In the case of `CCCOC(=O)c1sc(NC(=O)C[C@H](CCCNC)NC(=O)c2cccc(-c3noc(C)n3)c2)nc1C` [Compound 35, Propyl (S)-4-Methyl-2-(3-(3-(5-methyl-1,2,4-oxadiazol-3-yl)benzamido)-6-(methylamino)hexanamido)thiazole-5-carboxylate], the IC50 [1, 5] is reported as 19 nM, the IC50 ([1]; mean (±SD) n ≥ 3 (Table 4)) is reported as 19 nM and the IC50 [2] is reported as 66 nM. The “% Multipolarity above baseline @ 15 mM (4N cells)” value ([3]; 15 μM) was 1%, the “% multipolarity above baseline @ 15 μM (4N cells)” value [3] was 1% and the KSol data [4] was over 90 µM.
